Experiment [1] has as its system 6D-2 cells (MCF-7 human breast cancer cells stably transfected with luciferase linked to the 5′ and 3′UTRs of human HER2). The experiment can be described thus: Cellular toxicity, MTS cell viability, 6D-2 cells. It is filed as cell-based. Conditions: for IC50: MTS viability. The procedure:
(§1) 6D-2 cells (MCF-7 human breast cancer cells stably transfected with luciferase linked to the 5′ and 3′UTRs of human HER2) were added to 96-well plates at 7500 cells per well in 200 μL medium and incubated for 24 hours at 100% humidity, 5% CO2, and 37° C. Compounds were diluted from DMSO stock solutions into medium and were added at various concentrations. The 6D-2 cells were incubated for 16 hours at which time the volume of medium in each well was reduced to 100 μL using a plate washer. 20 μL of MTS cell viability reagent (Promega, Madison, Wis.) was then added to each well, and the plates were incubated for 1-4 hours. A plate containing wells with 100 μL medium plus MTS reagent was prepared to determine the background reading. The plates were read on the Wallac 2 plate reader (PerkinElmer Life Science, Boston, Mass.) at 490 nm. Percent viability was calculated as (O.D. of compound treated cells−background O.D.)/(O.D. of DMSO treated cells−background O.D.)×100. MT-4 cells (adult human T-cell leukemia cells) were plated at 1.5×10^5 cells per well in 200 μL medium and incubated for at least one hour before the addition of compounds. The cells were incubated for 5 days at 100% humidity, 5% CO2, and 37° C. Cell viability was determined as described for 6D-2 cells.
(§2) Compounds of the invention containing a pyrrolidine substituent were tested for toxicity to cancerous and non-cancerous cells. 6D-2 cellular activity is representative of potency as an antitumor agent. MT-4 cellular activity is representative of general toxicity. A high IC50 for MT-4 cells and a low IC50 for 6D-2 cells is indicative of a compound of potential therapeutic use in treating or preventing proliferative diseases, such as cancer.

Experiment [2] deals with MT-4 cells (adult human T-cell leukemia cells). The experiment can be described thus: Cellular toxicity, MTS cell viability, MT-4 cells. Format: cell-based. Conditions: for IC50: 5 day, MTS viability. The procedure: as §1, §2
Experiment [3] is described as follows: Cellular toxicity, MTS cell viability, 6D-2 cells. Particulars: Homo sapiens, MCF7, MTS viability. It is filed as cell-based, human. The procedure:
as §1, §2

What is called IC50 is the midpoint of a concentration-inhibition curve. As for `Nc1ccc(C(=O)N(C2=C(N3CCCC3)C(=O)c3ccccc3C2=O)c2ccccc2)cc1` [Example 15, 2-(N-4-aminobenzoylanilino)-3-pyrrolidino-1,4-naphthoquinone], the “6D-2 24 hr, percent @.10 μM” value in experiment [1] was 60% @.10 μM. The same compound came in with a half-inhibitory concentration (IC50) in experiment [2] (Homo sapiens, MT4, 120 h) of 1000 nM.

In experiment [1], `NC(=O)Nc1ccc(NC2=C(N3CCCC3)C(=O)c3ccccc3C2=O)cc1` [Example 28, 2-(N-(4-carbamidoanilino))-3-pyrrolidino-1,4-naphthoquinone] had an IC50 of 310 nM. Also, the “MT-4 5 day, percent @ 10 μM” value in experiment [2] is given as 56% @ 10 μM.

For `CC1CCCN1C1=C(Nc2ccc(F)cc2)C(=O)c2ccccc2C1=O` (stereo not shown) [Example 18, 2-(N-4-fluoroanilino)-3-(2-methylpyrrolidino)-1,4-naphthoquinone], the IC50 amounted to 2630 nM in experiment [1] and 5240 nM in experiment [2].

The compound `COC[C@@H]1CCCN1C1=C(Nc2ccc(F)cc2)C(=O)c2ccccc2C1=O` [Example 19, 2-(N-4-fluoroanilino)-3-(2-(S)-methoxymethylpyrrolidino)-1,4-naphthoquinone] displayed an IC50 in experiment [1] of 8950 nM. The “MT-4 5 day, percent @.10 μM” value in experiment [2] worked out at 97% @.10 μM.

Consider `O=C(Nc1ccccc1)Nc1ccc(NC2=C(N3CCCC3)C(=O)c3ccccc3C2=O)cc1` [Example 25, N^1-4-((3-pyrrolidino-1,4-naphthalenedion-2-yl)amino)phenyl-N^2-phenylurea], for which the half-maximal inhibitory concentration (IC50) was 1060 nM in experiment [1] and 2220 nM in experiment [2].

As to `CNC(=S)Nc1ccc(NC2=C(N3CCCC3)C(=O)c3ccccc3C2=O)cc1` [Example 12, N^1-4-((3-pyrrolidino-1,4-naphthalenedion-2-yl)amino)phenyl-N^2-methylthiourea], the IC50 was 100 nM in experiment [1] and 8700 nM in experiment [2].

For the compound `COc1ccc(NC2=C(N3CCCC3)C(=O)c3ccccc3C2=O)cn1` [Example 8, 2-(N-2-methoxy-5-aminopyridine)-3-pyrrolidino-1,4-naphthoquinone], the IC50 in experiment [1] was determined as 120 nM; in experiment [2], 1110 nM.

For the compound `Nc1ccc2c(c1)C(=O)C(N1CCCC1)=C(Nc1ccc(F)c(F)c1)C2=O` [Example 31, 6-Amino-2-(N-3,4-difluoroanilino)-3-pyrrolidino-1,4-naphthoquinone], the 50% inhibitory concentration (IC50) came out at 1500 nM in experiment [1] and 300 nM in experiment [2].

Turning to `COCCNC(=O)Nc1ccc(NC2=C(N3CCCC3)C(=O)c3ccccc3C2=O)cc1` [Example 27, N′-4-((3-pyrrolidino-1,4-naphthalenedion-2-yl)amino)phenyl-N^2-(2-methoxyethyl)urea], the concentration for half-maximal inhibition (IC50) in experiment [1] was found to be 210 nM; in experiment [2] it was 560 nM.

Turning to `NCC(=O)c1cccc(NC2=C(N3CCCC3)C(=O)c3ccccc3C2=O)c1` [Example 13, 2-(N-3-aminoacetylanilino)-3-pyrrolidino-1,4-naphthoquinone], the “6D-2 24 hr, percent @.10 μM” value in experiment [1] was found to be 70% @.10 μM. In addition, the “MT-4 5 day, percent @.10 μM” value in experiment [2] is 80% @.10 μM.

In the case of `CNC(=O)Nc1ccc(NC2=C(N3CCCC3)C(=O)c3ccccc3C2=O)cc1` [Example 26], the values for the concentration for half-maximal inhibition (IC50) in experiment [1] and in experiment [2] were 110 nM and 750 nM, respectively.

On to `O=C1C(Nc2ccc(F)cc2)=C(N2CCCC2)C(=O)c2cnccc21` [Example 4, 6-(N′-4-fluoroanilino)-7-pyrrolidino-5,8-isoquinolinedione], for which the IC50 came out at 1480 nM in experiment [1] and 2510 nM in experiment [2].

For the compound `COc1ccc(NC2=C(N3CCCC3)C(=O)c3ccccc3C2=O)cc1` [Example 9, 2-(N-4-methoxyanilino)-3-pyrrolidino-1,4-naphthoquinone], the IC50 in experiment [1] was determined as 100 nM; in experiment [2], 520 nM.

As for `Nc1ccc(NC2=C(N3CCCC3)C(=O)c3ccccc3C2=O)cc1` [Example 7, 2-(N-4-aminoanilino)-3-pyrrolidino-1,4-naphthoquinone], the results for the IC50 in experiment [1] and in experiment [2] were 70 nM and 160 nM, respectively.

On to `CC(C)OC(=O)Nc1ccc(NC2=C(N3CCCC3)C(=O)c3ccccc3C2=O)cc1` [Example 21, N-4-((3-pyrrolidino-1,4-naphthalenedion-2-yl)amino)phenyl-O-(1-methylethyl)carbamate], for which the concentration for half-maximal inhibition (IC50) in experiment [1] came out at 1380 nM; in experiment [2], 2000 nM.

On to `O=C1C(Nc2ccc(F)c(F)c2)=C(N2CCCC2)C(=O)c2ccccc21` [Example 29, 2-(N-3,4-difluoroanilino)-3-pyrrolidino-1,4-naphthoquinone], for which, in experiment [1], the IC50 came to 2340 nM. In addition, in experiment [2], the “MT-4 5 day, percent @ 10 μM” value was 40% @ 10 μM.

On to `O=C1C(Nc2ccc(F)c(F)c2)=C(N2CCCC2)C(=O)c2ccc([N+](=O)[O-])cc21` [Example 33, 7-Nitro-2-(N-3,4-difluoroanilino)-3-pyrrolidino-1,4-naphthoquinone], for which the IC50 came out at 1000 nM in experiment [1] and 700 nM in experiment [2].

For the compound `COC(=O)Nc1ccc2c(c1)C(=O)C(N1CCCC1)=C(Nc1ccc(F)c(F)c1)C2=O` [Example 32, 6-[(methoxycarbonyl)amino]-2-(N-3,4-difluoroanilino)-3-pyrrolidino-1,4-naphthoquinone], the IC50 in experiment [1] worked out at 4000 nM; in experiment [2] it was 7000 nM.

With `O=C1C(Nc2ccc(F)cc2)=C(N2CCCC2)C(=O)c2ncccc21` [Example 5, 6-(N-4-fluoroanilino)-7-pyrrolidino-5,8-quinolinedione], the IC50 came to 770 nM in experiment [1] and 6690 nM in experiment [2].

Consider `COC(=O)Nc1cccc(NC2=C(N3CCCC3)C(=O)c3ccccc3C2=O)c1` [Example 23, N-3-((3-pyrrolidino-1,4-naphthalenedion-2-yl)amino)phenyl-O-methylcarbamate], for which the half-inhibitory concentration (IC50) was found to be 870 nM in experiment [1] and 10200 nM in experiment [2].

Regarding `CC(=O)Nc1ccc(NC2=C(N3CCCC3)C(=O)c3cnccc3C2=O)cc1` [Example 3A, 6-(N′-4-aminoacetanilide)-7-pyrrolidino-5,8-isoquinolinedione], the IC50 in experiment [1] amounted to 370 nM; in experiment [2] it was 5160 nM.

As to `COC(=O)Nc1ccc(NC2=C(N3CCCC3)C(=O)c3ccccc3C2=O)cc1` [Example 22, N-4-((3-pyrrolidino-1,4-naphthalenedion-2-yl)amino)phenyl-O-methylcarbamate], the IC50 is 140 nM in experiment [1] and 470 nM in experiment [2].

In the case of `CC(C)NC(=O)Nc1ccc(NC2=C(N3CCCC3)C(=O)c3ccccc3C2=O)cc1` [Example 24, N′-4-((3-pyrrolidino-1,4-naphthalenedion-2-yl)amino)phenyl-N^2-(1-methylethyl)urea], the IC50 in experiment [1] came out at 180 nM; in experiment [2], 1680 nM.

Regarding `CC(=O)Nc1ccc(NC2=C(N3CCCC3)C(=O)c3ccncc3C2=O)cc1` [Example 3B, 7-(N′-4-aminoacetanilide)-6-pyrrolidino-5,8-isoquinolinedione], the IC50 came to 4080 nM in experiment [1] and 6790 nM in experiment [2].

With `O=C(Nc1ccc(NC2=C(N3CCCC3)C(=O)c3ccccc3C2=O)cc1)c1ccco1` [Example 20, 2-(4-(2-furanoylamino)phenylamino)-3-pyrrolidino-1,4-naphthoquinone], the half-inhibitory concentration (IC50) is 60 nM in experiment [3] and 110 nM in experiment [2] (Homo sapiens, MT4, 120 h).

For `CC(C)NC(=S)Nc1ccc(NC2=C(N3CCCC3)C(=O)c3ccccc3C2=O)cc1` [Example 11, N^1-4-((3-pyrrolidino-1,4-naphthalenedion-2-yl)amino)phenyl-N^2-(1-methylethyl)thiourea], the IC50 in experiment [1] was 330 nM; in experiment [2], 6150 nM.

For the compound `Cc1cc(=O)oc2cc(NC3=C(N4CCCC4)C(=O)c4ccccc4C3=O)ccc12` [Example 10, 7-((3-pyrrolidino-1,4-naphthalenedion-2-yl)amino)-4-methylcoumarin], the IC50 in experiment [3] is 6780 nM; in experiment [2] (Homo sapiens, MT4, 120 h) it was 1180 nM.

For `CC(C)(C)OC(=O)Nc1ccc(NC2=C(N3CCCC3)C(=O)c3ccccc3C2=O)cc1` [Example 6, N-4-((3-pyrrolidino-1,4-naphthalenedion-2-yl)amino)phenyl-O-1.1-dimethylethylcarbamate], the IC50 in experiment [1] was 570 nM; in experiment [2], 2780 nM.

`O=C1C(Nc2ccc(F)cc2)=C(N2CCCC2)C(=O)c2ccccc21` [Example 30, 2-(N-4-Fluoroanilino)-3-pyrrolidino-1,4-naphthoquinone]: the IC50 in experiment [1] turned out to be 520 nM; in experiment [2], 4470 nM.

With `CN(C)C1=C(Nc2cccc(F)c2)C(=O)c2ccccc2C1=O` [Example 17, 2-(N-3-fluoroanilino)-3-dimethylamino-1,4-naphthoquinone], half-maximal inhibition in experiment [1] (IC50) was put at 10000 nM. In addition, in experiment [2], the “MT-4 5 day, percent @.10 μM” value stood at 100% @.10 μM.

Consider `O=C1C(Nc2ccccc2)=C(N2CCCC2)C(=O)c2ccccc21` [Example 14, 2-(N-anilino)-3-pyrrolidino-1,4-naphthoquinone], for which the IC50 in experiment [1] was found to be 760 nM; in experiment [2] it was 2100 nM.

`O=C1C(Nc2cccc(F)c2)=C(N2CCCC2)C(=O)c2ccccc21` [Example 16, 2-(N-3-fluoroanilino)-3-pyrrolidino-1,4-naphthoquinone]: in experiment [1], the IC50 amounted to 1360 nM. The “MT-4 5 day, percent @.10 μM” value in experiment [2] was determined as 68% @.10 μM.

Source of the values: patent US20030232801A1, “Identification of compounds for the treatment or prevention of proliferative diseases” (priority 2001, published 2003).
